Structures can show the parent of a compound that is named as a salt.
Assays:
[1] = molecular target: T1, PDGF receptor tyrosine kinase (mouse PDGF-β) (Mus musculus, UniProt P05622); assay: PDGFr tyrosine kinase assay (poly glutamate-tyrosine phosphorylation); type: biochemical; settings: Table 1; 10 minutes at 25° C.
T1 construct: PCR primers are designed to amplify a fragment of DNA that codes for the intracellular tyrosine kinase domain; made in house; host or cells: Sf9 insect cells (baculovirus), cell lysate
T1 sequence (P05622 599-961 limits assumed): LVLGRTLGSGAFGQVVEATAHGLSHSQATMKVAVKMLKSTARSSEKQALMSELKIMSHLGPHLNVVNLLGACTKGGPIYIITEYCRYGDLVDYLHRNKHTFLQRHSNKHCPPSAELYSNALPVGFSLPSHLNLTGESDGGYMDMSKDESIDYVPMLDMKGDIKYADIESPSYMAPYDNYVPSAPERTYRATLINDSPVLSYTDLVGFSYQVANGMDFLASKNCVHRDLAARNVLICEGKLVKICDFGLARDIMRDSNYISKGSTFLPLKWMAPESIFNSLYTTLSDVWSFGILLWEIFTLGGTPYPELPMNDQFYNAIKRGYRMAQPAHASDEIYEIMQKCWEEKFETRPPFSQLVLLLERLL
Protocol: Platelet Derived Growth Factor Receptor (PDGFr) and Fibroblast Growth Factor Receptor (FGFr)
Full length cDNAs for the mouse PDGF-β and human FGF-1 (flg) receptor tyrosine kinases were obtained from J. Escobedo and are prepared as described in J. Biol. Chem., 262: 1482-1487 (1991). PCR primers are designed to amplify a fragment of DNA that codes for the intracellular tyrosine kinase domain. The fragment is melded into a baculovirus vector, cotransfected with AcMNPV DNA, and the recombinant virus isolated. SF9 insect cells are infected with the virus to overexpress the protein, and the cell lysate is used for the assay.
The assay is performed in 96-well plates (100 μL/incubation/well), and conditions are optimized to measure the incorporation of ^32 p from [γ^32 P]-ATP into a glutamate-tyrosine copolymer substrate. Briefly, to each well is added 82.5 μL of incubation buffer containing 25 mM Hepes (pH 7.0), 150 mM NaCl, 0.1% Triton X-100, 0.2 mM PMSF, 0.2 mM sodium vanadate, 10 mM manganese chloride, and 750 μg/mL of poly (4:1) glutamate-tyrosine followed by 2.5 μL of inhibitor and 5 μL of enzyme lysate (7.5 μg/μL FGFR-TK or 6.0 μg/μL PDGFR-TK) to initiate the reaction. Following a 10 minute incubation at 25° C., 10 μL of [γ^32 P]-ATP (0.4 μCi plus 50 μM ATP) is added to each well and samples are incubated for an additional 10 minutes at 25° C. The reaction is terminated by the addition of 100 μL of 30% trichloroacetic acid (TCA) containing 20 mM sodium pyrophosphate and precipitation of material onto glass fiber filter mats (Wallac). Filters are washed 3 times with 15% TCA containing 100 mM sodium pyrophosphate and the radioactivity retained on the filters counted in a Wallac 1250 Betaplate reader. Nonspecific activity is defined as radioactivity retained on the filters following incubation of samples with buffer alone (no enzyme). Specific enzymatic activity is defined as total activity (enzyme plus buffer) minus nonspecific activity.

[2] = molecular target: T2, Human EGF receptor tyrosine kinase (Homo sapiens, UniProt P00533); assay: EGFr tyrosine kinase assay; type: biochemical; settings: Table 1; 10 μM ATP, 25° C., 10 minutes
T2 construct: Human EGF receptor tyrosine kinase is isolated from A431 human epidermoid carcinoma cells; endogenous in cells; host or cells: A431 human epidermoid carcinoma cells (detergent lysate, fast Q sepharose fractions)
T2 sequence (P00533 25-1210): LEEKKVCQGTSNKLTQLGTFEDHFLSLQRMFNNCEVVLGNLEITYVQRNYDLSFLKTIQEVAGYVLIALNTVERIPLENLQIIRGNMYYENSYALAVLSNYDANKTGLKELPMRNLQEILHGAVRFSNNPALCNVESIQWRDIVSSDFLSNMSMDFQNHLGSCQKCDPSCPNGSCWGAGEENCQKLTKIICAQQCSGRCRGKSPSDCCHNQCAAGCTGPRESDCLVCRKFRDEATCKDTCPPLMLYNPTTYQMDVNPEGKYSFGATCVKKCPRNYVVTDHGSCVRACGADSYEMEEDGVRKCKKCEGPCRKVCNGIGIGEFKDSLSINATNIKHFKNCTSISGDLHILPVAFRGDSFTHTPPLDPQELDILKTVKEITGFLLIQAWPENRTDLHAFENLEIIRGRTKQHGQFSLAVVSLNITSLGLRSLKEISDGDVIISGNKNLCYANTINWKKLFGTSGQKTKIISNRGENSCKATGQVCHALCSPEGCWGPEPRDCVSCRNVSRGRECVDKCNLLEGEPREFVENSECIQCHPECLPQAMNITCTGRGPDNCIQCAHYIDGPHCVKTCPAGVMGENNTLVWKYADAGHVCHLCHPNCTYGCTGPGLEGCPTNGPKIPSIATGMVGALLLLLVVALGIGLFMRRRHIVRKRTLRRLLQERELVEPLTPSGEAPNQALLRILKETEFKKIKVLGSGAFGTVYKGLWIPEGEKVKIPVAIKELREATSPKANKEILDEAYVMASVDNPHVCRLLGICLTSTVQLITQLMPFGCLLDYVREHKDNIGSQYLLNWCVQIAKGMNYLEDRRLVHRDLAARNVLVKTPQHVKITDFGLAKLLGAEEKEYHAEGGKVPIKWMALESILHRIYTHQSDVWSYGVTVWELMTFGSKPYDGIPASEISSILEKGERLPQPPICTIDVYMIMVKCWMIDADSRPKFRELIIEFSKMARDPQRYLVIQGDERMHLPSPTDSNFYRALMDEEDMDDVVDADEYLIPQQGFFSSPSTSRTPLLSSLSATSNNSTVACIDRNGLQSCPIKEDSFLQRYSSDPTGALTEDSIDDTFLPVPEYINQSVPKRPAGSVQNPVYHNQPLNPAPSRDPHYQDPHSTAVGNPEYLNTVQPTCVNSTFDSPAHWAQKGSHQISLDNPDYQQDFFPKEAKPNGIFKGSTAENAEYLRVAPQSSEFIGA

[3] = molecular target: T3, insulin receptor (INSr) (Homo sapiens, UniProt P06213); assay: Insulin receptor kinase assay; type: biochemical; settings: Table 1; as for EGF receptor with 10 mM manganese chloride
T3 construct: An assay using the intracellular kinase domains of insulin receptor (INSr) is performed
T3 sequence (P06213 1023-1298 limits assumed, species assumed): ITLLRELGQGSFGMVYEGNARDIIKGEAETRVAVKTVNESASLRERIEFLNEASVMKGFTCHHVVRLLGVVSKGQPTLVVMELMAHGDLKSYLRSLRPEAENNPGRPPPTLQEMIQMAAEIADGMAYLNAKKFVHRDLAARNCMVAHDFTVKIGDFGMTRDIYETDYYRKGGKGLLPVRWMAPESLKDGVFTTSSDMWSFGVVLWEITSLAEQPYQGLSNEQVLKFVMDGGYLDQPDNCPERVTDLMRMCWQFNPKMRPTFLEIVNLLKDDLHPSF

[4] = test system: PDGF receptor autophosphorylation in rat aorta smooth muscle cells; assay: PDGF Receptor Autophosphorylation Assay in rat aorta smooth muscle cells; type: cell-based; settings: Table 2, PDGF-BB 30 ng/mL, 2 hours pre-incubation, read-out: IC50, inhibition of PDGF-stimulated receptor autophosphorylation
Protocol: Rat aorta smooth muscle cells (RASMC) are isolated from the thoracic aorta of rats and explanted according to the method of Ross, J. Cell. […] Cells are grown in Dulbecco's modified Eagle's medium (DMEM, Gibco) containing 10% fetal calf serum (FBS, Hyclone, Logan, Utah), 1% glutamine (Gibco) and 1% penicillin/streptomycin (Gibco). Cells are identified as smooth muscle cells by their "hill and valley" growth pattern and by fluorescent staining with a monoclonal antibody specific for SMC μ-actin (Sigma). RASMC are used between passages 5 and 20 for all experiments. Test compounds are prepared in dimethylsulfoxide (DMSO) in order to achieve consistency in the vehicle and to ensure compound solubility. Appropriate DMSO controls are simultaneously evaluated with the test compounds.
Rat aortic smooth muscle cells are grown to confluencey in 100 mm dishes. Growth medium is removed and replaced with serum-free medium and cells are incubated at 37° C. for an additional 24 hours. Test compounds are then added directly to the medium and cells incubated for an additional 2 hours. After 2 hours PDGF-BB is added at a final concentration of 30 ng/mL for 5 minutes at 37° C. to stimulate autophosphorylation of PDGF receptors. Following growth factor treatment, the medium is removed, and cells are washed with cold phosphate-buffered saline and immediately lysed with 1 mL of lysis buffer (50 mM Hepes, pH 7.5, 150 mM NaCl, 10% glycerol, 1% Triton-X 100, 1 mM EDTA, 1 mM EGTA, 50 mM NaF, 1 mM sodium orthovanadate, 30 mM p-nitrophenyl phosphate, 10 mM sodium pyrophosphate, 1 mM phenylmethyl sulfonyl fluoride, 10 μg/mL aprotinin and 10 μg/mL leupeptin). Lysates are centrifuged at 10,000 ×g for 10 minutes. […] Following the incubation, protein-A-sepharose beads are added for 2 hours with continuous mixing, and immune complexes bound to the beads washed 4 times with 1 mL lysis wash buffer. Immune complexes are solubilized in 40 μL of Laemmli sample buffer and electrophoresed in 8-16% SDS polyacrylamide gels. Following electrophoresis, separated proteins are transferred to nitrocellulose and immunoblotted with a 1:1000 dilution of antiphosphotyrosine monoclonal antibody (UBI clone 4G10; #05-321). Following extensive washing with PBS-0.2% tween-20, the blots are incubated with horseradish peroxidase labeled goat antimouse IgG (1:5000; Bio-Rad Inc, Hercules, Calif.) and protein levels are detected by enhanced chemiluminescence (ECL) detection system according to the instructions of the supplier (Amersham Inc, Arlington Heights, Ill.). The density of the protein bands are determined using NIH Image software (v. 1.56) and IC50 values are generated from the densitometric data.

[5] = test system: SW-620 cells; assay: Human Colon Carcinoma Growth Delay Assay; type: cell-based; settings: 72 h, Table 3, SW-620, 3 days
Protocol: Human Colon Carcinoma Growth Delay Assay Human colon carcinoma cells are seeded into 96-well tissue culture plates in a final volume of 180 μL of 10% fetal bovine serum containing growth media and allowed to incubate overnight (37° C., 5% CO2, 95% air). Cells of the SW620 cell line are seeded at 1.0-1.5×10^4 cells per well. Cells of the HCT8 and HT29 cell lines are seeded at 2-4×10^3 cells per well. […] At the end of the incubation period, cells are fixed with 100 μL per well of 10% trichloroacetic acid after removing the drug/culture medium. The plates are washed 5 times with tap water and stained with 100 μL per well of 0.075% sulforhodamine B in 1% acetic acid for 10 minutes. The plates are rinsed 4 times and allowed to air dry. The stain in the wells are solubilized by the addition of 10 mM unbuffered Tris base and the absorbance read using a microtiter plate optical reader. Inhibition of cell growth is calculated from absorbance data of the treated cells compared to untreated control cells. Table 3 provides data for inhibition of growth in human adenocarcinoma cell lines.

[6] = test system: SW-620 cells; assay: Human Colon Carcinoma Clonogenic Assay; type: cell-based
Protocol: SW620 cells are seeded at 7×10^5 per well; HCT8 cells are seeded at 5×10^5 per well; HT29 cells are seeded at 4×10^5 cells per well. Serially diluted drugs are prepared at 200 ×the final concentration and 15 μL are added to each of duplicate wells. Cells are incubated with drug for 2 days, rinsed once with 1 mL of trypsin+EDTA, and then trypsinized with the same trypsin solution. […] One milliliter of each of these cell suspensions is added to duplicate wells of 6 well plates previously prepared with 10% serum/growth medium/ 1% agarose plugs. The cells in these plates are incubated for approximately 2 weeks in the incubator and stained with 1 mL per well of 1 mg/mL iodonitrotetrazolium violet stain. The visible colonies are counted with an electronic optical colony counter and the clonogenicity of treated cells calculated in comparison to untreated control cells.

[7] = molecular target: T4, FGF receptor tyrosine kinase (human FGF-1 (flg)) (Homo sapiens, UniProt P11362); assay: FGFr tyrosine kinase assay (poly glutamate-tyrosine phosphorylation); type: biochemical; settings: Table 1; 10 minutes at 25° C.
T4 construct: PCR primers are designed to amplify a fragment of DNA that codes for the intracellular tyrosine kinase domain; made in house; host or cells: Sf9 insect cells (baculovirus), cell lysate
T4 sequence (P11362 478-767 limits assumed): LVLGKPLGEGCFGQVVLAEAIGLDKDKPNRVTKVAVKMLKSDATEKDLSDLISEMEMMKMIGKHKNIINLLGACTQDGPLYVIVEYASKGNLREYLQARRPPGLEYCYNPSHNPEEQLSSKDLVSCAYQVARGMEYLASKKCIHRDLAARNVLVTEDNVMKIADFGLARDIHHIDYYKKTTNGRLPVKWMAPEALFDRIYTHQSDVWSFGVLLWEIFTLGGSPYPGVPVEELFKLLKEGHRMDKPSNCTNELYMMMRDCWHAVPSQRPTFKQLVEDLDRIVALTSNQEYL
Protocol: Platelet Derived Growth Factor Receptor (PDGFr) and Fibroblast Growth Factor Receptor (FGFr) Full length cDNAs for the mouse PDGF-β and human FGF-1 (flg) receptor tyrosine kinases were obtained from J. Escobedo and are prepared as described in J. Biol. Chem., 262: 1482-1487 (1991). PCR primers are designed to amplify a fragment of DNA that codes for the intracellular tyrosine kinase domain. The fragment is […] into a baculovirus vector, cotransfected with AcMNPV DNA, and the recombinant virus isolated. SF9 insect cells are infected with the virus to overexpress the protein, and the cell lysate is used for the […] and FGFr The assay is performed in 96-well plates (100 μL/incubation/well), and conditions are optimized to measure the incorporation of ^32 p from [γ^32 P]-ATP into a glutamate-tyrosine copolymer substrate. […] The reaction is terminated by the addition of 100 μL of 30% trichloroacetic acid (TCA) containing 20 mM sodium pyrophosphate and precipitation of material onto glass fiber filter mats (Wallac). Filters are washed 3 times with 15% TCA containing 100 mM sodium pyrophosphate and the radioactivity retained on the filters counted in a Wallac 1250 Betaplate reader. Nonspecific activity is defined as radioactivity retained on the filters following incubation of samples with buffer alone (no enzyme). Specific enzymatic activity is defined as total activity (enzyme plus buffer) minus nonspecific activity.

[8] = molecular target: MAP Kinase Pathway (GST-MEK / GST-MAPK); assay: Cascade Assay for Inhibitors of the MAP Kinase Pathway (APK Assay); type: biochemical; settings: Table 1; 50 μM ATP, 20 minutes
Protocol: Cascade Assay for Inhibitors of the MAP Kinase Pathway (APK Assay) Incorporation of ^32 P into myelin basic protein (MBP) is assayed in the presence of a glutathione S-transferase fusion protein containing p44MAP kinase (GST-MAPK) and a glutathione S-transferase fusion protein containing p45MEK (GST-MEK). […] Reactions are stopped after 20 minutes by addition of trichloroacetic acid and filtered through a GF/C filter mat. ^32 P retained on the filter mat is determined using a 1205 betaplate. […] To ascertain whether compounds are inhibiting GST-MEK or GST MAPK, two additional protocols are employed. In the first protocol, compounds are added to tubes containing GST MEK, followed by addition of GST-MAPK, MBP and [γ^32 P]ATP. In the second protocol, compounds are added to tubes containing both GST-MEK and GST-MAPK, followed by MBP and [γ^32 P]ATP. Compounds that show activity in both protocols are scored as […], while compounds showing activity in only the first protocol are scored as MEK inhibitors.

[9] = molecular target: Protein kinase C (PKC); assay: PKC assay; type: biochemical; settings: Table 1; rat brain preparation
Protocol: Protein kinase C (PKC) is obtained as a rat brain preparation from Promega.
The PKC assay is performed as previously described by Martiny-Baron, et al., J. Biol. Chem. 268: 9194-9197 (1993).

[10] = molecular target: T5, c-Src (Homo sapiens, UniProt P12931); assay: c-Src kinase assay; type: biochemical; settings: Table 1; 5 μM ATP, room temperature, 10 minutes
T5 construct: made in house; host or cells: baculovirus infected insect cells
T5 sequence (P12931 whole entry, species assumed): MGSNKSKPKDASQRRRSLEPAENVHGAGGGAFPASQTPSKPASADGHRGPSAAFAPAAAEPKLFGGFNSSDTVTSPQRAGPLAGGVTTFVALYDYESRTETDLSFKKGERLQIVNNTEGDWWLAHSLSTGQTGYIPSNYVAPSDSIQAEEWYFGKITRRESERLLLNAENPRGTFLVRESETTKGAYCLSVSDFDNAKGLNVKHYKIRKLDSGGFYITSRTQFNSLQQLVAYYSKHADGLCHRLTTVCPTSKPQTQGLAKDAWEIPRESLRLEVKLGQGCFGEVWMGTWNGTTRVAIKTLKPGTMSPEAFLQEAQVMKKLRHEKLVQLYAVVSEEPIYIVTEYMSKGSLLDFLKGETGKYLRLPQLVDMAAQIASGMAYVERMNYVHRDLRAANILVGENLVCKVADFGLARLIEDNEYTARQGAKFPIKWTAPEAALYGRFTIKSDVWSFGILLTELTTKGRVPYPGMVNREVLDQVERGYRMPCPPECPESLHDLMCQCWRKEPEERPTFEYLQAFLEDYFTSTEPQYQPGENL
Protocol: c-Src kinase is purified from baculovirus infected insect cell lysates using an antipeptide monoclonal antibody directed against the N-terminal 2-17 amino acids as described previously by Fry, et al, Anticancer Drug Design. 9: 331-351 (1994). […] At the end of the lysate incubation, the beads are rinsed 3 times in lysis buffer, resuspended in lysis buffer containing 10% glycerol, and frozen. These latex beads are thawed, rinsed 3 times in assay buffer which is comprised of 40 mM tris pH 7.5, 5 mM magnesium chloride, and suspended in the same buffer. […] The reaction is started at room temperature by addition of the ATP and quenched 10 minutes later by the addition of 125 μL of 30% TCA, 0.1 M sodium pyrophosphate for 15 minutes on ice. The plate is then filtered and the wells washed with two 250-μL aliquots of 15% TCA, 0.1 M pyrophosphate. The filters are punched, counted in a liquid scintillation counter, and the data examined for inhibitory activity in comparison to a known inhibitor such as erbstatin. The method is described more fully in J. Med. Chem., 37: 598-609 (1994).

[11] = Table 3, SW-620, 2 days drug exposure, approximately 2 weeks colony growth, read-out: SW-620 Clonogenic IC50

## Oc1cccc2c1ncn2-c1ccccc1 [Example 11, 4-Hydroxy-1-phenylbenzimidazole Hydrochloride]
[1]
  IC50: 10.6 µM
[2]
  IC50: > 50 µM
[3]
  IC50: > 50 µM
[4]
  IC50: > 10 µM
[5]
  IC50: > 25 µM
[6]; SW-620, read-out: SW-620 Clonogenic IC50
  IC50: > 5 µM
[6]; [11]
  IC50: 2.1 µM

## COc1ccc2c(c1)ncn2-c1ccccc1 [Example 13, 5-Methoxy-1-phenylbenzimidazole Hydrochloride]
[1]
  IC50: 0.4 µM
[7]
  IC50: 22 µM
[2]
  IC50: < 50 µM
[3]
  IC50: > 50 µM
[8]
  IC50: 5 µM
[9]
  IC50: > 50 µM
[4]
  IC50: 2 µM
[5]
  IC50: > 25 µM
[6]; [11]
  IC50: > 5 µM

## CN(C)CCCOc1ccc2c(c1)ncn2-c1ccccc1 [Example 37, 5-[3--(N,N-Dimethylamino)propoxyl]-1-phenylbenzimidazole Dihydrochloride]
[1]
  IC50: 0.2 µM
[7]
  IC50: 4.1 µM
[10]
  IC50: 14 µM
[2]
  IC50: > 40 µM
[3]
  IC50: > 50 µM
[8]
  IC50: 27 µM
[9]
  IC50: > 50 µM

## c1ccc(-n2cnc3cc(OCCN4CCOCC4)ccc32)cc1 [Example 38, 5-[2-(4-Morpholino)ethoxy]-1-phenylbenzimidazole Dihydrochloride]
[1]
  IC50: 0.7 µM
[7]
  IC50: 28 µM
[10]
  IC50: > 50 µM
[2]
  IC50: > 40 µM
[3]
  IC50: > 50 µM
[8]
  IC50: 45 µM
[9]
  IC50: > 50 µM
[4]
  IC50: 0.7 µM

## c1ccc(-n2cnc3cc(OCCCN4CCOCC4)ccc32)cc1 [Example 39, 5-[3-(4-Morpholino)propoxy]-1-phenylbenzimidazole Dihydrochloride]
[1]
  IC50: 0.2 µM
[7]
  IC50: 9.8 µM
[10]
  IC50: > 50 µM
[2]
  IC50: > 40 µM
[3]
  IC50: > 50 µM
[8]
  IC50: 18 µM
[9]
  IC50: > 50 µM

## COc1ccc2c(c1)ncn2-c1ccc(N)cc1 [Example 45, 1-(4-Aminophenyl)-5-methoxybenzimidazole Dihydrochloride]
[1]
  IC50: 0.3 µM
[7]
  IC50: 18 µM
[10]
  IC50: > 50 µM
[2]
  IC50: < 40 µM
[3]
  IC50: > 50 µM
[8]
  IC50: 37 µM
[9]
  IC50: > 50 µM
[4]
  IC50: 3.5 µM

## c1ccc(-n2cnc3cc(OCCCCN4CCOCC4)ccc32)cc1 [Example 59, 5-[4-(4-Morpholino)butoxy]-1]phenylbenzimidazole Dihydrochloride]
[1]
  IC50: 0.3 µM
[7]
  IC50: 12 µM
[10]
  IC50: 25 µM
[4]
  IC50: 2.2 µM
[5]
  IC50: > 25 µM
[6]; [11]
  IC50: > 25 µM

Reference: US5990146A, “Benzimidazoles for inhibiting protein tyrosine kinase mediated cellular proliferation” (Warner-Lambert Company, priority 1998, dated 1999)
